In one test the test system is Streptococcus mutans. In words: Antibiofilm activity against Streptococcus mutans UA159 infected in Fischer 344 rat assessed as reduction in colony forming units at 100 uM topically administered measured after 43 days. The note with it: time 43.0 day. Format: functional, organism-based.
Another test relates to Streptococcus sanguinis. In words: Bactericidal activity against Streptococcus sanguinis SK36 assessed as reduction in bacterial growth at 100 uM after 24 hrs. Format: functional.
Test [1] deals with T1, Glucosyltransferase-S (Streptococcus mutans serotype c (strain ATCC 700610 / UA159)) (UniProt P49331).
T1 sequence (whole entry): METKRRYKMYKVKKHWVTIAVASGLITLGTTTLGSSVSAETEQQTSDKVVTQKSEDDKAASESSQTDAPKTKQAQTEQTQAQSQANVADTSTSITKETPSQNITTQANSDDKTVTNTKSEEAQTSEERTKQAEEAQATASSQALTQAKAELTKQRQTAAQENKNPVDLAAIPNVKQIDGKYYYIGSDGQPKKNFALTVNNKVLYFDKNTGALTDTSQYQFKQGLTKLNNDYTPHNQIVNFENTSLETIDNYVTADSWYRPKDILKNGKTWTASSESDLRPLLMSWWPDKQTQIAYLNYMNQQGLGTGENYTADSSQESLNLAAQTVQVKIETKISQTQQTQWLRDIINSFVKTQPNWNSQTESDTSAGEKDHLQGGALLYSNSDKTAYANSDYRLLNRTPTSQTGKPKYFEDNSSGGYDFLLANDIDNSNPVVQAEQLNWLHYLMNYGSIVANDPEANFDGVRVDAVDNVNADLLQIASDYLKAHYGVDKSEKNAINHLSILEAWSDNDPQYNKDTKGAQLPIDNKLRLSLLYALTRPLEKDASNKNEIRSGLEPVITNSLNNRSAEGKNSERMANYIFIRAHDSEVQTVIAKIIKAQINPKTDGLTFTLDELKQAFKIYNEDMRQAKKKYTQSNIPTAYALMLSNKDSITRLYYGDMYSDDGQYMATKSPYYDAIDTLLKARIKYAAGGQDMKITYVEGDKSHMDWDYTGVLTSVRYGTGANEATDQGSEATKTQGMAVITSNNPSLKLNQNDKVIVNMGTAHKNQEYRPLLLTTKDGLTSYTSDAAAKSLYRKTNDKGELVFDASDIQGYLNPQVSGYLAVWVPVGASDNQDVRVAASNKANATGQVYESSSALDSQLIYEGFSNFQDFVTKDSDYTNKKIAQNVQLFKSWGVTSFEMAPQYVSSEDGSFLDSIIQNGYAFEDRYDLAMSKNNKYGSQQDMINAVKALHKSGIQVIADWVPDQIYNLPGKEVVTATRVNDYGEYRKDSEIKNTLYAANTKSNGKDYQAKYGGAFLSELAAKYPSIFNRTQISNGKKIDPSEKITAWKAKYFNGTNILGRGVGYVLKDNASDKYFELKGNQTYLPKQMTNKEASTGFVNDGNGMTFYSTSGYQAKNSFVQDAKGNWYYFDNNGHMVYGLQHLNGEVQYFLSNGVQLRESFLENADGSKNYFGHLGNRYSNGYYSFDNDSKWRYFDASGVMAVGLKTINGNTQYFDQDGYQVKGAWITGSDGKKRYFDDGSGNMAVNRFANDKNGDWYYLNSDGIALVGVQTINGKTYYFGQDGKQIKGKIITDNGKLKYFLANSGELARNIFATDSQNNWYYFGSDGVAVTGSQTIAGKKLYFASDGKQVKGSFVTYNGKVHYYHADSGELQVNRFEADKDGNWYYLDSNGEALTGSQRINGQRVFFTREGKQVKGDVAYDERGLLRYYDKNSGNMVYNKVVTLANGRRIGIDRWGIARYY
In words: Inhibition of GtfD in Streptococcus mutans UA159 assessed as reduction in glucans level by Coomassie blue dye based SDS-PAGE analysis.

In test [2] the target is T2, Glucosyltransferase-SI (Streptococcus mutans serotype c (strain ATCC 700610 / UA159)) (UniProt P13470).
T2 sequence (whole entry): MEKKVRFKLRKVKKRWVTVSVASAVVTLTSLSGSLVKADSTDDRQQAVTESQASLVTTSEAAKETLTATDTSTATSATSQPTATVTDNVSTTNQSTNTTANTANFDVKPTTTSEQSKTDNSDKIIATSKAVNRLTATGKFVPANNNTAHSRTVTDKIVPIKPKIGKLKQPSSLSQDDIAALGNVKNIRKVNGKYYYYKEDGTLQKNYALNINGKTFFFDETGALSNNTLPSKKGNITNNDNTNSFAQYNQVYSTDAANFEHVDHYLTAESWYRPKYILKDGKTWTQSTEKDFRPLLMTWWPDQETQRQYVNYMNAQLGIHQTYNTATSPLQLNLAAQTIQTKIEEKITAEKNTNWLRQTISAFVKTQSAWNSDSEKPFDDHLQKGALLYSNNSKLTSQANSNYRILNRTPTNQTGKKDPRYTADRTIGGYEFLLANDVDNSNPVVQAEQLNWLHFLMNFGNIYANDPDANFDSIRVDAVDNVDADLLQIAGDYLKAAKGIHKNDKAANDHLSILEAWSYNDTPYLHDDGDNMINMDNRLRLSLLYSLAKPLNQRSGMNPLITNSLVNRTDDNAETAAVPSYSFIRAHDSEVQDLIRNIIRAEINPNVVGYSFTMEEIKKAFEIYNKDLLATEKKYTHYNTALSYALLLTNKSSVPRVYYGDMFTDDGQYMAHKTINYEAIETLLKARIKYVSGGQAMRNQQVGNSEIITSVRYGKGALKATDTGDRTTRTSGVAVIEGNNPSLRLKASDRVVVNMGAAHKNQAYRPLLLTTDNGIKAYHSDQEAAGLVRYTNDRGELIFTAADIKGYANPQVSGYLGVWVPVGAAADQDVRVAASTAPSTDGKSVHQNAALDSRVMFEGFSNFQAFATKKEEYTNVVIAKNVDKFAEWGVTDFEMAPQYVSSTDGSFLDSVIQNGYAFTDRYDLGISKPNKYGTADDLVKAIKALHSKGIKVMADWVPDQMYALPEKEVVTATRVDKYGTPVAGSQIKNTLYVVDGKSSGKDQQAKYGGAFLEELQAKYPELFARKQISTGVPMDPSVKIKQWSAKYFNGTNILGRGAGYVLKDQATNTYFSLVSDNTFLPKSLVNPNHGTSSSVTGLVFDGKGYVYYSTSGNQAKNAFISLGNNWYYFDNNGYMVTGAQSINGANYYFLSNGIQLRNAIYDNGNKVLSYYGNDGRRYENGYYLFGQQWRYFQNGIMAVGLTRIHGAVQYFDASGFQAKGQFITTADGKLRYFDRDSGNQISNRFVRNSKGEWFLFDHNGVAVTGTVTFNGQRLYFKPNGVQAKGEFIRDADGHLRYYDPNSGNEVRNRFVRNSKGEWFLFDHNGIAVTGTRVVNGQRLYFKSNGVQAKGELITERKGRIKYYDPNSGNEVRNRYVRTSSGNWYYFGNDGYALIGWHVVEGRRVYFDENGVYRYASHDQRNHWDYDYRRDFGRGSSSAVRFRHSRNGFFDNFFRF
The test can be described thus: Inhibition of GtfC in Streptococcus mutans UA159 assessed as reduction in glucans level by Coomassie blue dye based SDS-PAGE analysis.

Active and inactive are the calls of the source. The calls are words filed in the database; no cut-off is given here.

Regarding `NC(=O)c1ccccc1NC(=O)c1cc2cc([N+](=O)[O-])ccc2s1`, the result in the test on Streptococcus mutans and in the test with Streptococcus sanguinis was inactive. In addition, the inhibition result in test [1] and in test [2] was “Active” throughout.
In the case of `COC(=O)c1ccc(NC(=O)c2cc3cc([N+](=O)[O-])ccc3s2)cc1`, the inhibition entry in test [1] and in test [2] was “Active” throughout.
`CC(C)(C)OC(=O)NCc1ccccc1NC(=O)c1cc2cc([N+](=O)[O-])ccc2s1`: the inhibition result in test [1] and in test [2] was “Active” each time.
`CC(C)(C)OC(=O)NCc1ccccc1NC(=O)c1cnc2ccccc2c1`: the inhibition result in test [1] and in test [2] was “Active” in each case.
Regarding `NC(=O)c1ccccc1NC(=O)c1cnc2ccccc2c1`, the outcome in the test with Streptococcus mutans and with Streptococcus sanguinis was inactive. The inhibition entry in test [1] and in test [2] was “Active” each time.
Regarding `NC(=O)c1cccc(NC(=O)c2cnc3ccccc3c2)c1`, the inhibition entry in test [1] and in test [2] was “Active” in each case.
`O=C(c1ccc(F)cc1)c1ccc(-c2[nH]c(-c3ccc([N+](=O)[O-])cc3O)nc2-c2ccccc2)cc1`: the inhibition result in test [1] and in test [2] was “Active” in each case.

For the origin of these results see ChEMBL document CHEMBL4673385, “Discovery of Potent Inhibitors of Streptococcus mutans Biofilm with Antivirulence Activity” (ACS Med Chem Lett, 2021).
